Among the data in patent US8471005B2 (Cephalon, Inc., priority 2008, dated 2013) are IC50 values, retold here.

Bounds are passed on as bounds.

For experiment [1], the target named is T1, ALK (Homo sapiens, UniProt Q9UM73).
T1 construct: host or cells: baculovirus expression system
The experiment can be described thus: ALK Kinase Assay (ELISA/TRF, PLC-γ substrate). In kind it is biochemical. The settings on record: ALK Kinase Inhibition; read-out: ALK Potency. The gist of the method:
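Time-resolved fluorescence ELISA using Eu-N1 PT66 antibody to detect phosphorylated PLC-γ (coated at 10 μg/mL). Enzyme at 30 ng/ml ALK; 15 min incubation, 37° C.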

The target in experiment [2] is T2, JAK2 (Homo sapiens, UniProt O60674).
T2 construct: host or cells: baculovirus expression system
The experiment can be described thus: Recombinant Human JAK2 Kinase Assay (TRF). Format: biochemical. The conditions noted are these: JAK2 Kinase Inhibition; read-out: JAK2 Potency. An outline of the steps: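 TRF read-out: Eu-N1 PY100 anti-phosphotyrosine antibody detects product. Enzyme is baculovirus-expressed JAK2 at 15 ng/ml; substrate is a biotinyl 15-mer peptide bound to Neutravidin-coated wells. Buffer 20 mM HEPES pH 7.2, 0.2 μM ATP, 1 mM MnCl2, 0.1% BSA, 2.5% DMSO final; 20 min, RT.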

T1 sequence (Q9UM73 19-1620): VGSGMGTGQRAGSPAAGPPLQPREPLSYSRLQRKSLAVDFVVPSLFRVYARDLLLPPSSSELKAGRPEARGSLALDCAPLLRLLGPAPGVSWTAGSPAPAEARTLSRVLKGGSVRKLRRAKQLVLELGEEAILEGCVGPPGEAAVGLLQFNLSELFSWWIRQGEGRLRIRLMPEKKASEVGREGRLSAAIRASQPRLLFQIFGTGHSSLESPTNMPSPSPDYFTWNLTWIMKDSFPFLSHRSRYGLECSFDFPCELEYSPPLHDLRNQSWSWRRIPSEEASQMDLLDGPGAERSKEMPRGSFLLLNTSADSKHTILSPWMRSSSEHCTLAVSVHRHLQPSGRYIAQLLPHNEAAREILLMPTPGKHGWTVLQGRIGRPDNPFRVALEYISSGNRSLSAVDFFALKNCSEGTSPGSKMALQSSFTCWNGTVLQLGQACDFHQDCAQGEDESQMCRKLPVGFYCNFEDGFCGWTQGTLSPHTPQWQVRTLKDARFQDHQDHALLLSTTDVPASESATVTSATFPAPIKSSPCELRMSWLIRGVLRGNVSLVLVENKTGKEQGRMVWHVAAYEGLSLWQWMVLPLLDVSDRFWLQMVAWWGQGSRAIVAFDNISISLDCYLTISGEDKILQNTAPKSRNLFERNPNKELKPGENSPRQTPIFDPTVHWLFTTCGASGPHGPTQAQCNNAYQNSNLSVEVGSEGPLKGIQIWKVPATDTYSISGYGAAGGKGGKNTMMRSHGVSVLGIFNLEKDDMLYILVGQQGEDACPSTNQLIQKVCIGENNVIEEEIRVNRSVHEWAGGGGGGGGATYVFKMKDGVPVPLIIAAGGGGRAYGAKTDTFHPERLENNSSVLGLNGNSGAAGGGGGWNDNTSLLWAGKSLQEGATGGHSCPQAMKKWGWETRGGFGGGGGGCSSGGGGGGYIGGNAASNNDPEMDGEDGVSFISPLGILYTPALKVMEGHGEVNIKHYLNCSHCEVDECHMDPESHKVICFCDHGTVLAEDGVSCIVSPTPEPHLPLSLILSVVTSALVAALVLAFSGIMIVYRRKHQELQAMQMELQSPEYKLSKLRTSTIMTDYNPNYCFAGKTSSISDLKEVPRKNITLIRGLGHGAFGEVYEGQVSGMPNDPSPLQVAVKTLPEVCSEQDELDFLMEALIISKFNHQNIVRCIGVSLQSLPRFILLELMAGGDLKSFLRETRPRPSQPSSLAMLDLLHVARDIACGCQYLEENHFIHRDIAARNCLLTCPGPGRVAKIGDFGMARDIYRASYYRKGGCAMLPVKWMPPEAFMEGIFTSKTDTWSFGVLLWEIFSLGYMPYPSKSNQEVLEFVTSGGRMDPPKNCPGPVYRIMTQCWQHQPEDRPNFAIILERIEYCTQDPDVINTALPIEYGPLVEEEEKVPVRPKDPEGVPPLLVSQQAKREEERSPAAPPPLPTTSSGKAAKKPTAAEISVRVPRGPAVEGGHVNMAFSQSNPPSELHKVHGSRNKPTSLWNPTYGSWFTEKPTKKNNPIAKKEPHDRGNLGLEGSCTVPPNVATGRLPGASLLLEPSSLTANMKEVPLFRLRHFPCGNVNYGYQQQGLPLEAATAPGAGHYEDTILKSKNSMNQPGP
T2 sequence (O60674 whole entry): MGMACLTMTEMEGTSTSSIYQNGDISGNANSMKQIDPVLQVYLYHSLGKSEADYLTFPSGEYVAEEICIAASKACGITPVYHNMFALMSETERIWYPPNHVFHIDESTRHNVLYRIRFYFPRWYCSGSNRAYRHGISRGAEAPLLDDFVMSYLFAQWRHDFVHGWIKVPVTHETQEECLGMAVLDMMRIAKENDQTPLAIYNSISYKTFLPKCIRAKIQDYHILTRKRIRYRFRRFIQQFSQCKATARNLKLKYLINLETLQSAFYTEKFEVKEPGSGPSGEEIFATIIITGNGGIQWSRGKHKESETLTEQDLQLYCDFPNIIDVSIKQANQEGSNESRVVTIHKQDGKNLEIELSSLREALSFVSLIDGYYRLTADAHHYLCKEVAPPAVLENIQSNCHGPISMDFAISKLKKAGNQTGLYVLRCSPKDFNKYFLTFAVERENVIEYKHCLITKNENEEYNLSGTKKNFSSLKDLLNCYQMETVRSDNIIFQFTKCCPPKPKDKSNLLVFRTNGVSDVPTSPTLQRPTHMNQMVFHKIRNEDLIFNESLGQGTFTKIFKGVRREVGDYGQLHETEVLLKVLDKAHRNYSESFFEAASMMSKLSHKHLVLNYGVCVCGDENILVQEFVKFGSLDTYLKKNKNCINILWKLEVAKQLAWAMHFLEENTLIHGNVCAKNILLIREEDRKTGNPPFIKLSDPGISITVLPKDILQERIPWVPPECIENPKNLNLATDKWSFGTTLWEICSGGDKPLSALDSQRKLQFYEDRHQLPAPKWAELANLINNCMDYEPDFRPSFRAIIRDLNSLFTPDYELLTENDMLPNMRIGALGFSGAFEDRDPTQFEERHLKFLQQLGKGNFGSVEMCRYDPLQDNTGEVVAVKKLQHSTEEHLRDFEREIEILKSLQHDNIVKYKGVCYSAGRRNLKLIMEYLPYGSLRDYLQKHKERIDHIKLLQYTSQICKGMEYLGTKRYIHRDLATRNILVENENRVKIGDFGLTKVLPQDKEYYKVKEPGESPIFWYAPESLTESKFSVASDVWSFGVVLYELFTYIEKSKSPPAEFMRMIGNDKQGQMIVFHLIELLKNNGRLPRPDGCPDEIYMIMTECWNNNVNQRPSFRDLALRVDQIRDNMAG

`COc1cc(N2CCC(N3CCN(C)CC3)CC2)ccc1Nc1ncc2ccc(-c3ccccc3OC)n2n1` [Example 251, {2-Methoxy-4-[4-(4-methyl-piperazin-1-yl)-piperidin-1-yl]-phenyl}-[7-(2-methoxy-phenyl)-pyrrolo[2,1-f][1,2,4]triazin-2-yl]-amine]: the IC50 in experiment [1] and in experiment [2] was < 100 nM in each case.

Regarding `CCN1CCOC(c2ccc(Nc3ncc4ccc(-c5ccccc5OC)n4n3)cc2)C1` (centres unmarked) [Example 252, [4-(4-Ethyl-morpholin-2-yl)-phenyl]-[7-(2-methoxy-phenyl)-pyrrolo[2,1-f][1,2,4]triazin-2-yl]-amine], the IC50 in experiment [1] and in experiment [2] was < 100 nM in each case.

Turning to `CCN1CCOC(c2ccc(Nc3ncc4ccc(-c5cc(Cl)ccc5OC)n4n3)cc2)C1` (centres unmarked) [Example 253, [7-(5-Chloro-2-methoxy-phenyl)-pyrrolo[2,1-f][1,2,4]triazin-2-yl]-[4-(4-ethyl-morpholin-2-yl)-phenyl]-amine], the IC50 in experiment [1] and in experiment [2] was < 100 nM each time.

On to `c1ccc2c(c1)cc1cnc(Nc3ccc(N4CCOCC4)cc3)nn12` [Example 261, (4-Morpholin-4-yl-phenyl)-[1,2,4]triazino[1,6-a]indol-2-yl-amine], for which the IC50 was 100 to 1000 nM in experiment [1] and < 100 nM in experiment [2].

Consider `COc1cc(N2CCC(N3CCN(C)CC3)CC2)ccc1Nc1ncc2cc3ccccc3n2n1` [Example 262, {2-Methoxy-4-[4-(4-methyl-piperazin-1-yl)-piperidin-1-yl]-phenyl}-[1,2,4]triazino[1,6-a]indol-2-yl-amine], for which the IC50 was 100 to 1000 nM in experiment [1] and 1000 to 10000 nM in experiment [2].

Consider `CN1CCN(c2ccc(Nc3ncc4cc5ccccc5n4n3)cc2)CC1` [Example 263, [4-(4-Methyl-piperazin-1-yl)-phenyl]-[1,2,4]triazino[1,6-a]indol-2-yl-amine], for which the IC50 in experiment [1] was 100 to 1000 nM; in experiment [2], < 100 nM.

Regarding `CN1CCN(C2CCN(c3ccc(Nc4ncc5cc6ccccc6n5n4)cc3)CC2)CC1` [Example 264, {4-[4-(4-Methyl-piperazin-1-yl)-piperidin-1-yl]-phenyl}-[1,2,4]triazino[1,6-a]indol-2-yl-amine], the IC50 was 1000 to 10000 nM in experiment [1] and < 100 nM in experiment [2].

`CC1(C)CCC(=O)Nc2cc(Nc3ncc4cc5ccccc5n4n3)ccc21` [Example 265, 5,5-Dimethyl-8-([1,2,4]triazino[1,6-a]indol-2-ylamino)-1,3,4,5-tetrahydro-benzo[b]azepin-2-one]: the IC50 in experiment [1] was > 10000 nM; in experiment [2] it was < 100 nM.

With `COc1cc(N2CCOCC2)ccc1Nc1ncc2cc3ccccc3n2n1` [Example 266, (2-Methoxy-4-morpholin-4-yl-phenyl)-[1,2,4]triazino[1,6-a]indol-2-yl-amine], the values for the IC50 in experiment [1] and in experiment [2] were 1000 to 10000 nM and > 10000 nM, respectively.

For `COc1cc(N2CCN(C)CC2)ccc1Nc1ncc2cc3ccccc3n2n1` [Example 267, [2-Methoxy-4-(4-methyl-piperazin-1-yl)-phenyl]-[1,2,4]triazino[1,6-a]indol-2-yl-amine], the IC50 is 100 to 1000 nM in experiment [1] and 1000 to 10000 nM in experiment [2].

Turning to `COc1ccc2c(c1)cc1cnc(Nc3ccc(N4CCOCC4)cc3)nn12` [Example 268, (7-Methoxy-[1,2,4]triazino[1,6-a]indol-2-yl)-(4-morpholin-4-yl-phenyl)-amine], the IC50 in experiment [1] was > 10000 nM; in experiment [2], < 100 nM.

In the case of `COc1ccc2c(c1)cc1cnc(Nc3ccc(N4CCOCC4)cc3OC)nn12` [Example 269, (2-Methoxy-4-morpholin-4-yl-phenyl)-(7-methoxy-[1,2,4]triazino[1,6-a]indol-2-yl)-amine], the IC50 in experiment [1] and in experiment [2] was 1000 to 10000 nM throughout.

In the case of `c1ccc(Nc2ncc3cc4ccccc4n3n2)cc1` [Example 270, Phenyl-[1,2,4]triazino[1,6-a]indol-2-yl-amine], the IC50 in experiment [1] was > 10000 nM; in experiment [2], 100 to 1000 nM.

On to `Clc1cccc(Nc2ncc3cc4ccccc4n3n2)c1` [Example 271, (3-Chloro-phenyl)-[1,2,4]triazino[1,6-a]indol-2-yl-amine], for which the IC50 in experiment [1] is > 10000 nM; in experiment [2], 100 to 1000 nM.

Consider `COc1cccc(Nc2ncc3cc4ccccc4n3n2)c1` [Example 272, (3-Methoxy-phenyl)-[1,2,4]triazino[1,6-a]indol-2-yl-amine], for which the IC50 was > 10000 nM in experiment [1] and < 100 nM in experiment [2].

For the molecule `CN(C)S(=O)(=O)c1cccc(Nc2ncc3cc4ccccc4n3n2)c1` [Example 273, N,N-Dimethyl-3-([1,2,4]triazino[1,6-a]indol-2-ylamino)-benzenesulfonamide], the IC50 in experiment [1] is > 10000 nM; in experiment [2], 100 to 1000 nM.

On to `COc1ccccc1-c1ccc2cnc(Nc3ccc(C(C)C)c(NC(C)=O)c3)nn12` [Example 301, N-{2-Isopropyl-5-[7-(2-methoxy-phenyl)-pyrrolo[2,1-f][1,2,4]triazin-2-ylamino]-phenyl}-acetamide], for which the IC50 is 100 to 1000 nM in experiment [1] and < 100 nM in experiment [2].

Take `CC(=O)Nc1cc(Nc2ncc3ccc(-c4cccc(Cl)c4)n3n2)ccc1C(C)C` [Example 303, N-{5-[7-(3-Chloro-phenyl)-pyrrolo[2,1-f][1,2,4]triazin-2-ylamino]-2-isopropyl-phenyl}-acetamide]: the IC50 in experiment [1] is 1000 to 10000 nM; in experiment [2], < 100 nM.

Take `CC(=O)Nc1cc(Nc2ncc3ccc(-c4cccnc4)n3n2)ccc1C(C)C` [Example 304, N-[2-Isopropyl-5-(7-pyridin-3-yl-pyrrolo[2,1-f][1,2,4]triazin-2-ylamino)-phenyl]-acetamide]: the IC50 in experiment [1] is 1000 to 10000 nM; in experiment [2], < 100 nM.

Take `COc1ccc(Cl)cc1-c1ccc2cnc(Nc3ccc(C(C)(C)C)c(NC(C)=O)c3)nn12` [Example 306, N-{2-tert-Butyl-5-[7-(5-chloro-2-methoxy-phenyl)-pyrrolo[2,1-f][1,2,4]triazin-2-ylamino]-phenyl}-acetamide]: the IC50 in experiment [1] was 100 to 1000 nM; in experiment [2] it was < 100 nM.

Regarding `CC(=O)Nc1cc(Nc2ncc3ccc(-c4cccc(Cl)c4)n3n2)ccc1C(C)(C)C` [Example 307, N-{2-tert-Butyl-5-[7-(3-chloro-phenyl)-pyrrolo[2,1-f][1,2,4]triazin-2-ylamino]-phenyl}-acetamide], the IC50 in experiment [1] is > 10000 nM; in experiment [2] it was < 100 nM.

`CC(=O)Nc1cc(Nc2ncc3ccc(-c4cccnc4)n3n2)ccc1C(C)(C)C` [Example 308, N-[2-tert-Butyl-5-(7-pyridin-3-yl-pyrrolo[2,1-f][1,2,4]triazin-2-ylamino)-phenyl]-acetamide]: the IC50 is 100 to 1000 nM in experiment [1] and < 100 nM in experiment [2].

For the molecule `c1cncc(-c2ccc3cnc(Nc4cccc(N5CCOCC5)c4)nn23)c1` [Example 309, (3-Morpholin-4-yl-phenyl)-(7-pyridin-3-yl-pyrrolo[2,1-f][1,2,4]triazin-2-yl)-amine], the IC50 was 1000 to 10000 nM in experiment [1] and < 100 nM in experiment [2].

Regarding `COc1ccccc1-c1ccc2cnc(Nc3ccc(N4CCC(N5CCN(C)CC5)CC4)cc3)nn12` [Example 310, [7-(2-Methoxy-phenyl)-pyrrolo[2,1-f][1,2,4]triazin-2-yl]-{4-[4-(4-methyl-piperazin-1-yl)-piperidin-1-yl]-phenyl}-amine], the IC50 in experiment [1] and in experiment [2] was < 100 nM in each case.

In the case of `COc1ccc(Cl)cc1-c1ccc2cnc(Nc3ccc(N4CCC(N5CCN(C)CC5)CC4)cc3)nn12` [Example 311, [7-(5-Chloro-2-methoxy-phenyl)-pyrrolo[2,1-f][1,2,4]triazin-2-yl]-{4-[4-(4-methyl-piperazin-1-yl)-piperidin-1-yl]-phenyl}-amine], the IC50 in experiment [1] and in experiment [2] was < 100 nM throughout.

Consider `CN1CCN(C2CCN(c3ccc(Nc4ncc5ccc(-c6cccc(Cl)c6)n5n4)cc3)CC2)CC1` [Example 312, [7-(3-Chloro-phenyl)-pyrrolo[2,1-f][1,2,4]triazin-2-yl]-{4-[4-(4-methyl-piperazin-1-yl)-piperidin-1-yl]-phenyl}-amine], for which the IC50 in experiment [1] and in experiment [2] was < 100 nM throughout.

Turning to `CN1CCN(C2CCN(c3ccc(Nc4ncc5ccc(-c6cccnc6)n5n4)cc3)CC2)CC1` [Example 313, {4-[4-(4-Methyl-piperazin-1-yl)-piperidin-1-yl]-phenyl}-(7-pyridin-3-yl-pyrrolo[2,1-f][1,2,4]triazin-2-yl)-amine], the IC50 was 100 to 1000 nM in experiment [1] and < 100 nM in experiment [2].

For `COc1ccc(Cl)cc1-c1ccc2cnc(Nc3ccc(C(=O)N4CCOCC4)cc3)nn12` [Example 315, {4-[7-(5-Chloro-2-methoxy-phenyl)-pyrrolo[2,1-f][1,2,4]triazin-2-ylamino]-phenyl}-morpholin-4-yl-methanone], the IC50 in experiment [1] is 100 to 1000 nM; in experiment [2] it was < 100 nM.

With `O=C(c1ccc(Nc2ncc3ccc(-c4cccc(Cl)c4)n3n2)cc1)N1CCOCC1` [Example 316, {4-[7-(3-Chloro-phenyl)-pyrrolo[2,1-f][1,2,4]triazin-2-ylamino]-phenyl}-morpholin-4-yl-methanone], the results for the IC50 in experiment [1] and in experiment [2] were 100 to 1000 nM and < 100 nM, respectively.

For `O=C(c1ccc(Nc2ncc3ccc(-c4cccnc4)n3n2)cc1)N1CCOCC1` [Example 317, Morpholin-4-yl-[4-(7-pyridin-3-yl-pyrrolo[2,1-f][1,2,4]triazin-2-ylamino)-phenyl]-methanone], the figures for the IC50 in experiment [1] and in experiment [2] were 1000 to 10000 nM and < 100 nM, respectively.

With `COc1ccccc1-c1ccc2cnc(Nc3ccc(C(=O)N4CCN(C)CC4)cc3)nn12` [Example 318, {4-[7-(2-Methoxy-phenyl)-pyrrolo[2,1-f][1,2,4]triazin-2-ylamino]-phenyl}-(4-methyl-piperazin-1-yl)-methanone], the results for the IC50 in experiment [1] and in experiment [2] were 100 to 1000 nM and < 100 nM, respectively.
